Results on 11 compounds are retold here after patent US20240158446A1, “CYCLIC COMPOUND HAVING SELECTIVE INHIBITORY ACTION ON KRAS OVER HRAS AND NRAS” (CHUGAI SEIYAKU KABUSHIKI KAISHA, priority 2021, published 2024).

pKd: −log10 of the molar value.

For assay [1], the target named is GDP-bound NRAS wild-type protein (Homo sapiens, UniProt P01111). Kind of assay: Binding to NRAS by surface plasmon resonance (SPR), Single Cycle Kinetics. Conditions: ratio of KD for GDP-bound NRAS wild-type protein to KD for KRAS, SPR. Background: In SPR one partner is held on a chip, and binding of the other changes the refractive index at the surface.
Assay [2] addresses GDP-bound KRAS wild-type protein (Homo sapiens, UniProt P01116). Kind of assay: Binding to KRAS by surface plasmon resonance (SPR), Single Cycle Kinetics. Conditions: SPR, Single Cycle Kinetics, GDP-bound KRAS wild-type protein; read-out: KRAS KD.
The target in assay [3] is GDP-bound HRAS wild-type protein (Homo sapiens, UniProt P01112). Kind of assay: Binding to HRAS by surface plasmon resonance (SPR), Single Cycle Kinetics. Conditions: ratio of KD for GDP-bound HRAS wild-type protein to KD for KRAS, SPR.
For assay [4], the system named is human lung cancer strain NCI-H441. Description: cells. Conditions: NCI-H441, 96 h, read-out: NCI-H441 IC50 (nM), NCI-H441 cell proliferation, 4 days, CellTiter-Glo. For orientation: ATP-based viability assays read luminescence as a measure of living cells.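 Also: cell proliferation inhibition after four days measured by CellTiter-Glo.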

Chain of GDP-bound KRAS wild-type protein (P01116 whole entry): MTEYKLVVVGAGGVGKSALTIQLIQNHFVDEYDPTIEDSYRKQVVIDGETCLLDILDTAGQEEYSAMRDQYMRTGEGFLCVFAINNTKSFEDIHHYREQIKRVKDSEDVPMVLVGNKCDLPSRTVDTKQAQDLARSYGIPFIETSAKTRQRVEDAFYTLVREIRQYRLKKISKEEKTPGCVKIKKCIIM
Chain of GDP-bound NRAS wild-type protein (P01111 whole entry): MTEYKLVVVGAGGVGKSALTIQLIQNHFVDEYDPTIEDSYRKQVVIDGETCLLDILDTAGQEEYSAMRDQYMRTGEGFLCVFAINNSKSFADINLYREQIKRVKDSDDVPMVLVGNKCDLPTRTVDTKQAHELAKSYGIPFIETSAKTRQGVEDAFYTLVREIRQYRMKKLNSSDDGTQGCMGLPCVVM
Chain of GDP-bound HRAS wild-type protein (P01112 whole entry): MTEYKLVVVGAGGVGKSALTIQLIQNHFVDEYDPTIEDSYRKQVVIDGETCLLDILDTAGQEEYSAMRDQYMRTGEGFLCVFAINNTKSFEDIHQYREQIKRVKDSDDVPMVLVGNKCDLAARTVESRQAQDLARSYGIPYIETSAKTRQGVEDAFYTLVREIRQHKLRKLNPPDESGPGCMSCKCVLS

As for `CC[C@H](C)[C@@H]1NC(=O)[C@H](CC2CCC2)N(C)C(=O)C[C@@H](C(=O)N(C)C)N(C)C(=O)[C@H](C2CCCC2)N(C)C(=O)C2(CC(C)(C)C2)NC(=O)[C@@H]2CC(F)(F)CN2C(=O)[C@H](CCc2cc(F)c(C(F)(F)F)c(F)c2)NC(=O)CN(C)C(=O)[C@H](Cc2ccc(C(F)(F)F)cc2)N2CC/C=C\C[C@@H](C2=O)N(C)C(=O)CN(C)C1=O` [PP1716], the “NRAS/KRAS (KD ratio)” value in assay [1] is given as “AA (a compound having 20 or more is denoted as AA)”. Besides, the pKd in assay [2] is 10.00. In addition, in assay [3], the “HRAS/KRAS (KD ratio)” value is “A (a compound having 10 or more and less than 20 is denoted as A)”. In addition, the IC50 in assay [4] worked out at 3.8 nM.

In the case of `CC[C@H](C)[C@@H]1NC(=O)[C@H](COC)N(C)C(=O)C[C@@H](C(=O)N(C)C)N(C)C(=O)[C@H](C2CCCC2)N(C)C(=O)C2(CC(C)(C)C2)NC(=O)[C@@H]2CC(F)(F)CN2C(=O)[C@H](CCc2cc(F)c(C(F)(F)F)c(F)c2)NC(=O)CN(C)C(=O)[C@H](Cc2ccc(C(F)(F)F)cc2)N2CC/C=C\C[C@@H](C2=O)N(C)C(=O)CN(C)C1=O` [PP1717], the “NRAS/KRAS (KD ratio)” value in assay [1] is “A (a compound having 10 or more and less than 20 is denoted as A)”. Moreover, the pKd in assay [2] is 10.29. In addition, the “HRAS/KRAS (KD ratio)” value in assay [3] was “A (a compound having 10 or more and less than 20 is denoted as A)”. Besides, the IC50 in assay [4] was 2.4 nM.

Consider `CCCOC[C@H]1C(=O)N[C@@H]([C@@H](C)CC)C(=O)N(C)CC(=O)N(C)[C@H]2C/C=C\CCN(C2=O)[C@@H](Cc2ccc(C(F)(F)F)cc2)C(=O)N(C)CC(=O)N[C@@H](CCc2cc(F)c(C(F)(F)F)c(F)c2)C(=O)N2CC(F)(F)C[C@H]2C(=O)NC2(CC(C)(C)C2)C(=O)N(C)[C@@H](C2CCCC2)C(=O)N(C)[C@H](C(=O)N(C)C)CC(=O)N1C` [PP1718], for which, in assay [1], the “NRAS/KRAS (KD ratio)” value is given as “AA (a compound having 20 or more is denoted as AA)”. In assay [2], the pKd is 10.17. Also, in assay [3], the “HRAS/KRAS (KD ratio)” value was “A (a compound having 10 or more and less than 20 is denoted as A)”. Further, the IC50 in assay [4] was 2.5 nM.

Take `CCCN(C)C(=O)[C@@H]1CC(=O)N(C)[C@@H](CC(F)F)C(=O)N[C@@H]([C@@H](C)CC)C(=O)N(C)CC(=O)N(C)[C@H]2C/C=C\CCN(C2=O)[C@@H](Cc2ccc(C(F)(F)F)cc2)C(=O)N(C)CC(=O)N[C@@H](CCc2cc(F)c(C(F)(F)F)c(F)c2)C(=O)N2CCC[C@H]2C(=O)NC2(CC(C)(C)C2)C(=O)N(C)[C@@H](C2CCCC2)C(=O)N1C` [PP1721]: in assay [1], the “NRAS/KRAS (KD ratio)” value is “A (a compound having 10 or more and less than 20 is denoted as A)”. Also, the pKd in assay [2] is 9.52. In addition, the “HRAS/KRAS (KD ratio)” value in assay [3] is “A (a compound having 10 or more and less than 20 is denoted as A)”. The IC50 in assay [4] amounted to 10 nM.

For the compound `CC[C@H](C)[C@@H]1NC(=O)[C@H](CC(F)(F)F)N(C)C(=O)C[C@@H](C(=O)N(C)C)N(C)C(=O)[C@H](C2CCCC2)N(C)C(=O)C2(CC(C)(C)C2)NC(=O)[C@@H]2CCCN2C(=O)[C@H](CCc2cc(F)c(C(F)(F)F)c(F)c2)NC(=O)CN(C)C(=O)[C@H](Cc2ccc(C(F)(F)F)cc2)N2CC/C=C\C[C@@H](C2=O)N(C)C(=O)CN(C)C1=O` [PP1722], the “NRAS/KRAS (KD ratio)” value in assay [1] is on record as “AA (a compound having 20 or more is denoted as AA)”. In addition, the pKd in assay [2] is 10.22. Besides, the “HRAS/KRAS (KD ratio)” value in assay [3] is “A (a compound having 10 or more and less than 20 is denoted as A)”. The IC50 in assay [4] amounted to 1.8 nM.

On to `CC[C@H](C)[C@@H]1NC(=O)[C@H](CC(C)C)N(C)C(=O)C[C@@H](C(=O)N(C)C)N(C)C(=O)[C@H](C2CCCC2)N(C)C(=O)C2(CC(C)(C)C2)NC(=O)[C@@H]2CCCN2C(=O)[C@H](CCc2cc(F)c(C(F)(F)F)c(F)c2)NC(=O)CN(C)C(=O)[C@H](Cc2ccc(C(F)(F)F)cc2)N2CC/C=C\C[C@@H](C2=O)N(C)C(=O)CN(C)C1=O` [PP1727], for which the “NRAS/KRAS (KD ratio)” value in assay [1] is “A (a compound having 10 or more and less than 20 is denoted as A)”. Also, the pKd in assay [2] is 9.89. Besides, the “HRAS/KRAS (KD ratio)” value in assay [3] was “A (a compound having 10 or more and less than 20 is denoted as A)”. In assay [4], the IC50 came to 4 nM.

As to `CC[C@H](C)[C@@H]1NC(=O)[C@H](CC2CCC2)N(C)C(=O)C[C@@H](C(=O)N(C)C)N(C)C(=O)[C@H](C2CCCC2)N(C)C(=O)C2(CC(C)(C)C2)NC(=O)[C@@H]2CCCN2C(=O)[C@H](CCc2cc(F)c(C(F)(F)F)c(F)c2)NC(=O)CN(C)C(=O)[C@H](Cc2ccc(C(F)(F)F)cc2)N2CC/C=C\C[C@@H](C2=O)N(C)C(=O)CN(C)C1=O` [PP1728], the “NRAS/KRAS (KD ratio)” value in assay [1] is “A (a compound having 10 or more and less than 20 is denoted as A)”. Besides, the pKd in assay [2] was 9.80. Further, the “HRAS/KRAS (KD ratio)” value in assay [3] is “A (a compound having 10 or more and less than 20 is denoted as A)”. Further, in assay [4], the IC50 was determined as 18.3 nM.

Regarding `CCCN(C)C(=O)[C@@H]1CC(=O)N(C)[C@@H](COC)C(=O)N[C@@H]([C@@H](C)CC)C(=O)N(C)CC(=O)N(C)[C@H]2C/C=C\CCN(C2=O)[C@@H](Cc2ccc(C(F)(F)F)cc2)C(=O)N(C)CC(=O)N[C@@H](CCc2cc(F)c(C(F)(F)F)c(F)c2)C(=O)N2CCC[C@H]2C(=O)NC2(CC(C)(C)C2)C(=O)N(C)[C@@H](C2CCCC2)C(=O)N1C` [PP1729], the “NRAS/KRAS (KD ratio)” value in assay [1] is reported as “AA (a compound having 20 or more is denoted as AA)”. For the same compound, the pKd in assay [2] was 9.70. For the same compound, the “HRAS/KRAS (KD ratio)” value in assay [3] is “A (a compound having 10 or more and less than 20 is denoted as A)”. The IC50 in assay [4] stood at 20.6 nM.

Take `CCCN(C)C(=O)[C@@H]1CC(=O)N(C)[C@@H](C)C(=O)N[C@@H]([C@@H](C)CC)C(=O)N(C)CC(=O)N(C)[C@H]2C/C=C\CCN(C2=O)[C@@H](Cc2ccc(C(F)(F)F)cc2)C(=O)N(C)CC(=O)N[C@@H](CCc2cc(F)c(C(F)(F)F)c(F)c2)C(=O)N2C[C@H](OCC)C[C@H]2C(=O)NC2(CC(F)(F)C2)C(=O)N(C)[C@@H](C2CCCC2)C(=O)N1C` [PP1731]: the “NRAS/KRAS (KD ratio)” value in assay [1] is “A (a compound having 10 or more and less than 20 is denoted as A)”. Moreover, the pKd in assay [2] is 10.15. Besides, the “HRAS/KRAS (KD ratio)” value in assay [3] was “A (a compound having 10 or more and less than 20 is denoted as A)”. The IC50 in assay [4] was 7.4 nM.

Take `CCCN(C)C(=O)[C@@H]1CC(=O)N(C)[C@@H](CC)C(=O)N[C@@H]([C@@H](C)CC)C(=O)N(C)CC(=O)N(C)[C@H]2C/C=C\CCN(C2=O)[C@@H](Cc2ccc(C(F)(F)F)cc2)C(=O)N(C)CC(=O)N[C@@H](CCc2cc(F)c(C(F)(F)F)c(F)c2)C(=O)N2C[C@H](OCC)C[C@H]2C(=O)NC2(CC(F)(F)C2)C(=O)N(C)[C@@H](C2CCCC2)C(=O)N1C` [PP1732]: the “NRAS/KRAS (KD ratio)” value in assay [1] is “AA (a compound having 20 or more is denoted as AA)”. Also, in assay [2], the pKd was 10.00. For the same compound, in assay [3], the “HRAS/KRAS (KD ratio)” value is “A (a compound having 10 or more and less than 20 is denoted as A)”. The IC50 in assay [4] amounted to 6.4 nM.

For `CCCN(C)C(=O)[C@@H]1CC(=O)N(C)[C@@H](CC(F)F)C(=O)N[C@@H]([C@@H](C)CC)C(=O)N(C)CC(=O)N(C)[C@H]2C/C=C\CCN(C2=O)[C@@H](Cc2ccc(C(F)(F)F)cc2)C(=O)N(C)CC(=O)N[C@@H](CCc2cc(F)c(C(F)(F)F)c(F)c2)C(=O)N2C[C@H](OCC)C[C@H]2C(=O)NC2(CC(F)(F)C2)C(=O)N(C)[C@@H](C2CCCC2)C(=O)N1C` [PP1733], the “NRAS/KRAS (KD ratio)” value in assay [1] is “A (a compound having 10 or more and less than 20 is denoted as A)”. For the same compound, the pKd in assay [2] is 9.96. Besides, the “HRAS/KRAS (KD ratio)” value in assay [3] was “A (a compound having 10 or more and less than 20 is denoted as A)”. Also, the IC50 in assay [4] came to 3.8 nM.

As a reminder, the pKd is the negative decadic logarithm of the Kd, by convention in mol/L.
